Tested on: BPA aptamer (DNA, aptamer) CCGCCGTTGGTGTGGTGGGCCTAGGGCCGGCGGCGCACAGCTGTTATAGACGTCTCCAGC
Test: microscale thermophoresis
Conditions: 25 °C; 5 nM aptamer; BPA 310 pM to 10 μM; Hill1 fit; buffer not stated

Kd: ~ 100 nM
Structure (SMILES): CC(C)(c1ccc(O)cc1)c1ccc(O)cc1

From publication PMC4255672 (2014)
